Source: US8470872B2, “Compounds with activity at estrogen receptors” (Acadia Pharmaceuticals Inc., priority 2007, dated 2013)

How the values were obtained:
[1] = biological target: T1, ERβ (Homo sapiens, UniProt Q92731); experiment: R-SAT (Receptor Selection and Amplification Technology) functional assay, ERβ; type: cell-based; design: expressed in transfected cells; host or cells: NIH-3T3 fibroblasts, transient transfection; conditions: NIH-3T3 fibroblasts transfected with receptor, na = not active; for EC50: read-out: R-SAT ERβ pEC50 (converted)
T1 sequence (Q92731 whole entry, species assumed): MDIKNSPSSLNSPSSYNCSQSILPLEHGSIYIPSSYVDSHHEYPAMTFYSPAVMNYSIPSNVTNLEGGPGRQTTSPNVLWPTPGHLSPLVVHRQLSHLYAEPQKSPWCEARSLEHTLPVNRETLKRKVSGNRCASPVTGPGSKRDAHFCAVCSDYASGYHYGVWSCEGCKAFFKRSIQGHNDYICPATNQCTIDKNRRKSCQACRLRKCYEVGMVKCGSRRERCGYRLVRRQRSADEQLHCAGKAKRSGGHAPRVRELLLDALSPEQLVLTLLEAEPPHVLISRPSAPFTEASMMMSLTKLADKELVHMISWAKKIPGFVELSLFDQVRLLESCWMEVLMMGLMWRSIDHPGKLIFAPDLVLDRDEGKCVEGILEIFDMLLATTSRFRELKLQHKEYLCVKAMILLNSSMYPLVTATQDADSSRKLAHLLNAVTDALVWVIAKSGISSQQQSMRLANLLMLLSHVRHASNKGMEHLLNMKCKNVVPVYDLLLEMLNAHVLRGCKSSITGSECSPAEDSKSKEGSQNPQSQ
Excerpt: (§1) R-SAT® (Receptor Selection and Amplification Technology) is a cell-based functional assay that allows one to monitor receptor-dependent proliferative responses and has been described elsewhere. The technology has been validated for a number of receptors including GPCRs (Brauner-Osborne and Brann 1996), RTKs (Burstein et al. 1998), cytokine receptors (Piu et al. 2002) and nuclear receptors (Piu et al. 2005; Piu et al. 2006). This process is achieved by partial cellular transformation via loss of contact inhibition and growth factor dependency. Monitoring is achieved by transfecting the cells with a β-galactosidase reporter gene vector whose expression is under a constitutively active promoter. Briefly, NIH-3T3 fibroblasts were plated overnight in 96-wells plates in DMEM 10% calf serum (Hyclone) and grown to 60-70% confluency prior to transfection. Transient transfections were performed using Polyfect (Qiagen) according to manufacturer's instructions. Typically a transfection mix would consist of the receptor and the β-galactosidase expression vectors. Sixteen hours post-transfection, cells were incubated with different doses of ligand in DMEM containing 30% Ultraculture (Hyclone) and 0.4% calf serum (Hyclone) to generate a dose response curve. After 5 days, plates were developed by adding onto the washed cells a solution containing the β-galactosidase substrate o-nitrophenyl-D-galacto pyranoside ONPG (in phosphate-buffered saline with 5% Nonidet P-40 detergent) as described (Piu et al. 2002). Plates were read using a microplate reader at 420 nm. Data from R-SAT® assays were fit to the equation: r=A+B(x/(x+c)), where A=minimum response, B=maximum response minus minimum response, c=EC50, r=response, and x=concentration of ligand. Curves were generated using the curve fitting softwares Excel Fit and GraphPad Prism (San Diego, Calif.).

[2] = biological target: T2, ERα (Homo sapiens, UniProt P03372); experiment: R-SAT (Receptor Selection and Amplification Technology) functional assay, ERα; type: cell-based; design: expressed in transfected cells; host or cells: NIH-3T3 fibroblasts, transient transfection; conditions: NIH-3T3 fibroblasts transfected with receptor, na = not active; for EC50: read-out: R-SAT ERα pEC50 (converted)
T2 sequence (P03372 1-595): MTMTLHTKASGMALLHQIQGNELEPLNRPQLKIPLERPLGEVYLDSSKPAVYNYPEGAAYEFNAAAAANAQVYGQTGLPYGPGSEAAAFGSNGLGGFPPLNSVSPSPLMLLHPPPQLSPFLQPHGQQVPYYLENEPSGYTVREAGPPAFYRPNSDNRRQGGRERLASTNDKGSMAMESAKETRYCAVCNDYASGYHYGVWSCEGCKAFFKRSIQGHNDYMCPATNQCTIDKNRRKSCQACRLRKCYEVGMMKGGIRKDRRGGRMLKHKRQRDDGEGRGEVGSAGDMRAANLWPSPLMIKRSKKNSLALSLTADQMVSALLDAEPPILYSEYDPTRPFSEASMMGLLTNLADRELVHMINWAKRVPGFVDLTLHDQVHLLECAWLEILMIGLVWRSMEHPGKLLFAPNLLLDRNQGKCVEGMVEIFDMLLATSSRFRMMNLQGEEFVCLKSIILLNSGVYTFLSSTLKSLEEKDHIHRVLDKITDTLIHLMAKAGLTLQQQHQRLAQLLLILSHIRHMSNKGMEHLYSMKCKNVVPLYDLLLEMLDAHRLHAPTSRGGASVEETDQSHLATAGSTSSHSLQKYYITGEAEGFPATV
Excerpt: as §1

[3] = biological target: T1, ERβ; experiment: Luciferase reporter gene assay (3*ERE) in HEK293 cells, ERβ; type: cell-based; conditions: 48 hours with test compounds; for EC50: read-out: Luciferase ERβ pEC50 (converted)
Method: (§2) HEK293 cells were grown to 70% confluency in DMEM containing 10% calf serum (Hyclone) prior to transfection. On the day of transfection (day 1), expression vectors for ERa or ERb were cotransfected along a construct containing a synthetic 3*ERE (estrogen response element) upstream of the luciferase gene (Panomics), using Polyfect (Qiagen) per manufacturer's recommendations. Sixteen hours post-transfection, cells were incubated in serum free DMEM. On day 3, cells were incubated with the test compounds for 48 hours in serum free DMEM. Cells extracts were then obtained by lyzing and the Luciferase activity measured. All of these steps were performed using a commercially available kit (Promega).

[4] = biological target: T2, ERα; experiment: Competitive 3H-estradiol binding assay, ERα; conditions: cytosolic extracts of transfected HEK293T cells, 1 nM 3H-estradiol; read-out: Binding ERα pKi (converted)
Method: (§3) HEK293T cells were transiently transfected for 48 hours with expression vectors encoding ERα or ERβ, before being serum starved for 4-6 hours. Cells were then harvested by scraping in ice-cold PBS and subsequently lysed using a cold buffer containing 10 mM Tris pH 7.4, 1 mM EDTA, 1 mM DTT before being subjected to polytron twice for 10 seconds. Cytosolic extracts were isolated by centrifugation at 15000 g for 30 minutes at 4° C. Competitive binding of the test compounds or the estradiol control was performed on 20 uL extract by overnight incubation at 4° C. in a total volume of 100 μL containing 1 nM ^3H-estradiol (Perkin Elmer, Boston, Mass.). The bound fraction was separated from the unbound one by the addition of 100 μL of Dextran coated charcoal, incubated for 10 minutes and subsequent centrifugation at 1000 rpm for 10 minutes. Samples (100 μL per sample) were then analyzed by liquid scintillation. Data was then analyzed using the curve fitting software GraphPad Prism.

[5] = biological target: T1, ERβ; experiment: Competitive 3H-estradiol binding assay, ERβ; conditions: cytosolic extracts of transfected HEK293T cells, 1 nM 3H-estradiol; read-out: Binding ERβ pKi (converted)
Method: as §3

[6] = biological target: T2, ERα; experiment: Luciferase reporter gene assay (3*ERE) in HEK293 cells, ERα; type: cell-based; conditions: 48 hours with test compounds; for EC50: read-out: Luciferase ERα pEC50 (converted)
Method: as §2

| SMILES | R-SAT ERβ % Eff [1] [%] | EC50 [1] [nM] | R-SAT ERα % Eff [2] [%] | EC50 [2] [nM] | Luciferase ERβ % Eff [3] [%] | EC50 [3] [nM] | Ki [4] [nM] | Ki [5] [nM] | Luciferase ERα % Eff [6] [%] | EC50 [6] [nM] |
| --- | --- | --- | --- | --- | --- | --- | --- | --- | --- | --- |
| Oc1ccc(C23CCCCCC2Oc2cccc(F)c23)cc1 (single isomer, unassigned) [Compound 982, 4-(1-Fluoro-6,7,8,9,10,10a-hexahydro-5aH-benzo[b]cyclohepta[d]-furan-10a-yl)phenol] | 87 | 0.0501 | 108 | 15.8 |  |  |  |  |  |  |
| Oc1ccc(C23CCCCCC2Oc2ccccc23)cc1 (centres unmarked) [Compound 807, 4-(6,7,8,9,10,10a-Hexahydro-5aH-benzo[b]cyclohepta[d]furan-10a-yl)phenol] | 99 | 1.26 | 93 | 398 | 81 | 0.316 | 79.4 | 5.01 | 51 | 316 |
| Oc1ccc(C23CCCCCC2Oc2cccc(F)c23)cc1 (single isomer, unassigned) [Compound 231, 4-(1-Fluoro-6,7,8,9,10,10a-hexahydro-5aH-benzo[b]cyclohepta[d]-furan-10a-yl)phenol] | 91 | 1 | 86 | 158 | 114 | 0.158 |  |  | 43 | 200 |
| Oc1ccc(C23CCCCC2Oc2cccc(F)c23)cc1 (centres unmarked) [Compound 130, 4-(1-Fluoro-5a,6,7,8,9,9a-hexahydrodibenzo[b,d]furan-9a-yl)phenol] | 97 | 6.31 | 70 | 631 | 129 | 2.51 | 126 | 25.1 | 51 | 631 |
| Oc1ccc(C23CCCCC=C2Oc2cccc(F)c23)cc1 (centres unmarked) [Compound 349, (E)-4-(1-Fluoro-8,9,10,10a-tetrahydro-7H-benzo[b]cyclohepta-[d]furan-10a-yl)phenol] | 24 |  | 16 |  |  | 316 |  |  | 6.4 |  |
| Oc1ccc(C23CCCCCC2Oc2ccc(F)cc23)cc1 (centres unmarked) [Compound 448, 4-(2-Fluoro-6,7,8,9,10,10a-hexahydro-5aH-benzo[b]cyclohepta[d]-furan-10a-yl)phenol] | 83 | 1.26 | 92 | 398 | 114 | 0.1 |  |  | 36 | 316 |
| Oc1ccc(C23CCCCCC2Oc2c(F)cccc23)cc1 (centres unmarked) [Compound 447, 4-(4-Fluoro-6,7,8,9,10,10a-hexahydro-5aH-benzo[b]cyclohepta-[d]furan-10a-yl)phenol] | 85 | 5.01 | 97 | 398 | 122 | 0.631 |  |  | 25 | 398 |
| Oc1ccc(C23CCCCC2Oc2ccccc23)cc1 (centres unmarked) [Compound 961, 4-(5a,6,7,8,9,9a-Hexahydrodibenzo[b,d]furan-9a-yl)phenol] | 100 | 10 | 95 | 1000 | 86 | 7.94 |  |  | 54 | 794 |
| Oc1ccc(C23CCCCCC2Oc2cccc(F)c23)cc1 (single isomer, unassigned) [Compound 232, 4-(1-Fluoro-6,7,8,9,10,10a-hexahydro-5aH-benzo[b]cyclohepta[d]-furan-10a-yl)phenol] | 76 | 10 | 37 | 794 | 80 | 7.94 |  |  | 27 | 1260 |
